Data reported in US20110150836A1, “METHODS OF TREATING HBV AND HCV INFECTION” (Gilead Sciences, Inc., priority 2009, published 2011).

Experiments:
serum cytokines = assay: Induction of serum cytokines in mice (ELISA, Luminex/Milliplex); format: in vivo, CD-1 mice; conditions: Day 1, 2 hours Post-dose
Procedure: Compound A was dosed once per day for 14 days by oral gavage, at 0.5 mg/kg or 2.5 mg/kg, in CD-1 mice. Mouse serum samples were collected on day 1 and day 14, and serum cytokine levels were determined using the following method. The assay for interferon-a was done by ELISA (VeriKine™ Mouse Interferon Alpha (Mu-IFN-a) ELISA Kit, Product Number: 42100-1, PBL Biomedical Laboratories, New Brunswick, N.J.) and the other serum cytokines were assayed with Luminex and Milliplex bead kits. Cytokine levels were determined using a nonlinear five point parameter curve for interpolation of data using the fit=(A+((B−A)/(1+(((B−E)/(E−A))*((x/C)̂D))))). The results are shown in Table 4 where the cytokine concentrations are expressed in units of pg/mL.

[1] = system: human peripheral blood mononuclear cells (PBMCs); assay: Induction of cytokines in human PBMCs in vitro (Luminex/Upstate multi-plex); format: cell-based; conditions: 24 hours; for IFN-α concentration / IFN-β concentration / IFN-γ concentration / IL1-α concentration / IL1-β concentration / IL-1ra concentration / IL-6 concentration / IL-10 concentration / IL-12 concentration / TNF-α concentration: PBMC supernatant
Procedure: Frozen human PBMCs were thawed and used to seed the wells of 96 well plates (7.5×10^5cells/well in 190 μL/well culture medium (CM)). The cells were incubated for 1 hour at 37° C. at a 5% CO2. […] The plates were incubated at 37° C., 5% CO2, for 24 hours, then centrifuged at 1200 rpm for 10 minutes. After centrifugation the supernatant was collected and stored at −80° C. The supernatant was assayed using Luminex and Upstate multi-plex kits for the presence of various cytokines.

[2] = system: Woodchuck Hepatitis Virus (WHV); assay: Seroconversion and antiviral activity in woodchucks chronically infected with WHV; format: in vivo, Eastern Woodchucks (Marmota monax); conditions: chronic WHV carrier woodchucks, oral 0.5 mg/kg/day for 28 days
Procedure: Compound A or placebo was administered orally to five woodchucks per group that were chronic carriers of woodchuck hepatitis virus (WHV). Compound A was administered at a dose of 0.5 mg/kg/day for 28 days. Blood samples were collected prior to dosing and multiple times during and after the 28 day dosing period. Antiviral activity of Compound A was assessed by comparing the serum WHV DNA of treated WHV carrier woodchucks with control WHV carrier woodchucks receiving vehicle. The ability of Compound A to cause seroconversion in chronically infected animals was assessed by comparing the serum antibody levels against the woodchuck hepatitis virus surface antigen (anti-WHsAg) in infected animals to the anti-WHsAg antibody levels in placebo treated animals.
The woodchucks used in this study were born to WHV-negative females and reared in environmentally controlled laboratory animal facilities. Woodchucks were inoculated at 3 days of age with 5 million woodchuck infectious doses of a standardized WHV inoculum (cWHV7P1 or WHV7P2). Woodchucks selected for use developed WHV surface antigen (WHsAg) serum antigenemia and became chronic WHV carriers. The chronic carrier status of these woodchucks was confirmed prior to initiation of drug treatment.
Serum WHV DNA concentrations were measured before treatment, during treatment, and during the post-treatment follow-up period at frequent intervals. WHV viremia in serum samples was assessed by dot blot hybridization using three replicate volumes (10 μl) of undiluted serum (sensitivity, 1.0×10^7 WHV genome equivalents per ml [WHVge/ml]) compared with a standard dilution series of WHV recombinant DNA plasmid (pWHV8).
Levels of Woodchuck Hepatitis Virus surface antigen (WHsAg) and antibodies to WHsAg (anti-WHs) were determined before treatment, during treatment, and during the post-treatment follow-up period at frequent intervals, using WHV-specific enzyme immunoassays.
Antiviral activity of Compound A was assessed by comparing the serum WHV DNA and the hepatic WHV nucleic acids of treated WHV carrier woodchucks with control WHV carrier woodchucks receiving vehicle.
Immune stimulatory activity of Compound A to cause seroconversion was assessed by comparing the serum levels of WHsAg and antibodies to WHsAg (anti-WHsAg).

interferon-alpha [3] = assay: Induction of interferon alpha in cynomolgus monkeys, single oral dose (serum ELISA); format: in vivo; conditions: serum at 4 and 8 hours
Procedure: A single dose of Compound A was administered orally to cynomolgus monkeys (3 or more animals per dose group) and serum was collected at 4 hours and 8 hours after dosing. Serum samples were analyzed for levels of interferon-alpha by ELISA. Prior to dosing, serum interferon-alpha levels were near or below the level of detection in each animal. The limit of quantitation (LOQ) for IFN-a based on cynomolgus monkey IFN-a standard was 625 pg/mL.

interferon-alpha [4] = assay: Induction of interferon alpha in cynomolgus monkeys, multiple oral doses once per day (serum ELISA); format: in vivo
Procedure: Additionally, multiple doses of Compound A were administered to Cynomolgus monkeys, and the concentrations of interferon alpha were measured. Compound A was dosed orally once per day to Cynomolgus monkeys (3 animals per dose group), and serum was collected on Days 1, 7 and 15 at 4 and 8 hours after dosing. Serum samples were analyzed for levels of interferon-alpha by ELISA. Prior to dosing on Day 1, serum interferon-alpha levels were below the level of detection in each animal.

For `CCCCOc1nc(N)c2nc(O)n(Cc3cccc(CN4CCCC4)c3)c2n1` [Compound A, 6-amino-2-butoxy-9-(3-(pyrrolidin-1-ylmethyl)benzyl)-9H-purin-8-ol], the “Average Serum IFN-a Level ± Standard Deviation” value (serum cytokines; oral 0.5 mg/kg) was 296.3 ± 322.4 pg/mL, the “Average Serum IL1-β Level ± Standard Deviation” value (serum cytokines; oral 0.5 mg/kg) was 4.8 ± 2.7 pg/mL and the “Average Serum IL6 Level ± Standard Deviation” value (serum cytokines; oral 0.5 mg/kg) was 257.2 ± 420.9 pg/mL. The “Average Serum IL12p40 Level ± Standard Deviation” value (serum cytokines; oral 0.5 mg/kg) was 3.2 ± 0 pg/mL, the “Average Serum IL-10 Level ± Standard Deviation” value (serum cytokines; oral 0.5 mg/kg) was 3.2 ± 0 pg/mL and the “Average Serum TNF-a Level ± Standard Deviation” value (serum cytokines; oral 0.5 mg/kg) was 41.7 ± 42.4 pg/mL. For the same molecule, the “Average Serum IFN-a Level ± Standard Deviation” value (serum cytokines; oral 2.5 mg/kg) was 1091.8 ± 413.6 pg/mL, the “Average Serum IL1-β Level ± Standard Deviation” value (serum cytokines; oral 2.5 mg/kg) was 20.8 ± 16.1 pg/mL and the “Average Serum IL6 Level ± Standard Deviation” value (serum cytokines; oral 2.5 mg/kg) was 6710.2 ± 3657.4 pg/mL. For the same molecule, the “Average Serum IL12p40 Level ± Standard Deviation” value (serum cytokines; oral 2.5 mg/kg) was 10 ± 11.7 pg/mL, the “Average Serum IL-10 Level ± Standard Deviation” value (serum cytokines; oral 2.5 mg/kg) was 143.4 ± 102.7 pg/mL and the “Average Serum TNF-a Level ± Standard Deviation” value (serum cytokines; oral 2.5 mg/kg) was 407.1 ± 258.1 pg/mL. For the same molecule, the “production of cytokines in human PBMCs in vitro” value ([1]; 0.1, 0.01, 0.001 μM) was “stimulated the production of a range of cytokines”, the IFN-α concentration ([1]; Compound A 0.001 μM) was 208 pg/mL and the IFN-β concentration ([1]; Compound A 0.001 μM) was 324 pg/mL. It also gave an IFN-γ concentration ([1]; Compound A 0.001 μM) of 2099 pg/mL, an IL1-α concentration ([1]; Compound A 0.001 μM) of 7 pg/mL and an IL1-β concentration ([1]; Compound A 0.001 μM) of 138 pg/mL. It also gave an IL-1ra concentration ([1]; Compound A 0.001 μM) of 3216 pg/mL, an IL-6 concentration ([1]; Compound A 0.001 μM) of 27664 pg/mL and an IL-10 concentration ([1]; Compound A 0.001 μM) of 735 pg/mL. It also gave an IL-12 concentration ([1]; Compound A 0.001 μM) of 61 pg/mL, a TNF-α concentration ([1]; Compound A 0.001 μM) of 82 pg/mL and an IFN-α concentration ([1]; Compound A 0.01 μM) of 122 pg/mL. It also gave an IFN-β concentration ([1]; Compound A 0.01 μM) of 170 pg/mL, an IFN-γ concentration ([1]; Compound A 0.01 μM) of 4578 pg/mL and an IL1-α concentration ([1]; Compound A 0.01 μM) of 94 pg/mL. The IL1-β concentration ([1]; Compound A 0.01 μM) was 752 pg/mL, the IL-1ra concentration ([1]; Compound A 0.01 μM) was 4530 pg/mL and the IL-6 concentration ([1]; Compound A 0.01 μM) was 66284 pg/mL. For the same molecule, the IL-10 concentration ([1]; Compound A 0.01 μM) was 992 pg/mL, the IL-12 concentration ([1]; Compound A 0.01 μM) was 386 pg/mL and the TNF-α concentration ([1]; Compound A 0.01 μM) was 1449 pg/mL. It also gave an IFN-α concentration ([1]; Compound A 0.1 μM) of 80 pg/mL, an IFN-β concentration ([1]; Compound A 0.1 μM) of 97 pg/mL and an IFN-γ concentration ([1]; Compound A 0.1 μM) of 5400 pg/mL. The IL1-α concentration ([1]; Compound A 0.1 μM) was 280 pg/mL, the IL1-β concentration ([1]; Compound A 0.1 μM) was 2836 pg/mL and the IL-1ra concentration ([1]; Compound A 0.1 μM) was 4934 pg/mL. For the same molecule, the IL-6 concentration ([1]; Compound A 0.1 μM) was 93554 pg/mL, the IL-10 concentration ([1]; Compound A 0.1 μM) was 1523 pg/mL and the IL-12 concentration ([1]; Compound A 0.1 μM) was 773 pg/mL. The TNF-α concentration ([1]; Compound A 0.1 μM) was 3665 pg/mL, the “serum WHV DNA concentrations” value ([2]; FIG. 1) was “caused a substantial reduction in serum WHV DNA concentrations” and the “antibodies against Woodchuck Hepatitis Virus Surface Antigen (anti-WHs)” value ([2]; FIG. 2) was “stimulated production of antibodies against Woodchuck Hepatitis Virus Surface Antigen (WHsAg)”. The “serum levels of WHsAg” value ([2]; FIG. 3) was “caused a substantial reduction in serum levels of WHsAg”, the “seroconversion against WHV” value ([2]; FIGS. 1-3) was “induced seroconversion against WHV” and the “Average peak serum Interferon-alpha levels (Mean ± standard deviation)” value (interferon-alpha [3]; single oral dose 0.005 mg/kg) was 7829 ± 9192 pg/mL. The “Average peak serum Interferon-alpha levels (Mean ± standard deviation)” value (interferon-alpha [3]; single oral dose 0.02 mg/kg) was 26148 ± 13873 pg/mL, the “Average peak serum Interferon-alpha levels (Mean ± standard deviation)” value (interferon-alpha [3]; single oral dose 0.05 mg/kg) was 42741 ± 29223 pg/mL and the “Average peak serum Interferon-alpha levels (Mean ± standard deviation)” value (interferon-alpha [3]; single oral dose 2.5 mg/kg) was 772923 ± 281529 pg/mL. The “Average peak serum Interferon-alpha levels on designated day” value (interferon-alpha [4]; oral 0.005 mg/kg once per day, Day 1) was 3233 pg/mL, the “Average peak serum Interferon-alpha levels on designated day” value (interferon-alpha [4]; oral 0.005 mg/kg once per day, Day 7) was 6709 pg/mL and the “Average peak serum Interferon-alpha levels on designated day” value (interferon-alpha [4]; oral 0.005 mg/kg once per day, Day 15) was 24053 pg/mL. The “Average peak serum Interferon-alpha levels on designated day” value (interferon-alpha [4]; oral 0.05 mg/kg once per day, Day 1) was 87570 pg/mL, the “Average peak serum Interferon-alpha levels on designated day” value (interferon-alpha [4]; oral 0.05 mg/kg once per day, Day 7) was 12175 pg/mL and the “Average peak serum Interferon-alpha levels on designated day” value (interferon-alpha [4]; oral 0.05 mg/kg once per day, Day 15) was 42648 pg/mL. For the same molecule, the “induction of serum interferon-alpha” value (interferon-alpha [4]; oral once per day, 0.005 and 0.05 mg/kg, Days 1, 7, 15) was “Interferon-alpha was induced”.
